Where a name gives a salt, the structure may show the parent alone. Read-outs that look alike come from different tables or passages of the source.
Columns and labels:
Hela cells = assay: Proliferation inhibition of Hela cells (Luminescence ATP Detection, ATPlite); type: cell-based; conditions: Homo sapiens, 72 hours
Protocol: (§1) I. Proliferation Inhibitory of the Compound on COLO 205 Cells and Hela Cells.
(§2) COLO205 cells, purchased from SIBS, generation P11; Hela purchased from ATCC, generation P13.
Cell culture and inoculation: on the first day of the experiment, cells in normal culture were taken in their exponential growth state, digested and dispersed, the cell density was adjusted to 9×10^3 cells/mL, and 40 μL per well were inoculated into 384-well cell culture plates; after inoculation was completed, the microplates were placed at 37° C. and 5% CO2 for incubation.
(§3) Drug treatment of cells: on the second day of the experiment, microplates were removed from the incubator, 9× compound were added to each well in the microplate, and 5 μL was added to each well, wherein there were 2 replicate wells for each drug concentration and 10 drug concentrations for each compound. According to different cell lines, the initial concentration of each compound was different, after the completion, the microplate was cultured at 37° C. and 5% CO2 for 72 hours.
(§4) Data collection: the microplates were removed from the incubator and equilibrated at room temperature for 30 minutes. 40 μL of ATPlite reaction mixture after room temperature equilibrium was added to each well, the solution was shaken at room temperature of 1300 rpm for 2 minutes, and then the microplate was placed in a HERAEUS Multifuge X1R centrifuge at 2000 rpm for 1 minute; after equilibrium at room temperature for 10 minutes, the fluorescence signal value was measured on EnVision™.
(§5) Calculation of cell viability: Cell viability(%)=signal value of administration/signal value of controlx 100%. Graphpad Prism 5.0 was used to fit Log(inhibitor) vs. response-Variable slope (four parameters) curves to the fluorescence signal values at each concentration, and the corresponding IC50 (half maximal inhibitory concentration) was calculated.

COLO 205 cells = assay: Proliferation inhibition of COLO 205 cells (Luminescence ATP Detection, ATPlite); type: cell-based; conditions: Homo sapiens; p53-deficient cell line COLO 205, 72 hours
Protocol: as §1, §2
as §3, with “third” for “second”
as §4, with “collection: The” for “collection: the”, “minutes. 100” for “minutes. 40”
as §5

WEE1 kinase = molecular target: T1, WEE1 kinase (Homo sapiens, UniProt P30291); assay: Inhibitory effect on WEE1 kinase in vitro (ELISA); type: biochemical; conditions: ATP concentration of Km (12 μM), WEE1 0.15 ng/μL, 60 min
T1 construct: purchased CarnaBiosciences, Inc. 05-177
T1 sequence (P30291 whole entry): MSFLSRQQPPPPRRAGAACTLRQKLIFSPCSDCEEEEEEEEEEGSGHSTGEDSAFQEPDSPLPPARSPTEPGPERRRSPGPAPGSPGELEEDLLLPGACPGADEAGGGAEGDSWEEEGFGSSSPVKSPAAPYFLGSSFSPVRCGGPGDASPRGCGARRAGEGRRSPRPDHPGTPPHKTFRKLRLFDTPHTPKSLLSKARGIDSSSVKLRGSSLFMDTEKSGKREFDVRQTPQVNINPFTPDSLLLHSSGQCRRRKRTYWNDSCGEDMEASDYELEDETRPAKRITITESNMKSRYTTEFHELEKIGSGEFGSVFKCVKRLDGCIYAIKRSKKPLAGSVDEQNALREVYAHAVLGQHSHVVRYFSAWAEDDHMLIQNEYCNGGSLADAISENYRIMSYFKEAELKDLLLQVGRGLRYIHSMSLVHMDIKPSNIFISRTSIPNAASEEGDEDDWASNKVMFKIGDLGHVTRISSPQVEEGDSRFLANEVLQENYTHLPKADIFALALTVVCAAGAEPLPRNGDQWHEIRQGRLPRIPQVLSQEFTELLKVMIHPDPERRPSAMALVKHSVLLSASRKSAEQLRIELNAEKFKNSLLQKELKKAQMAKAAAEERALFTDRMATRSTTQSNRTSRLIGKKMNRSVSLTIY
Protocol: I. Inhibitory Effect of Compound on WEE1 Kinase In Vitro
The tested compounds were screened on WEE1 kinase with ATP concentration of Km by ELISA. Three compounds were screened on WEE1 kinase to evaluate the kinase inhibitory activity of the tested compounds. In the detection process, the initial concentration of the tested compounds was all selected as 100 nM, and each compound was selected with 6 gradient dilution concentrations, the gradient dilution ratio was 4-fold, and two replicate wells were detected for each concentration, MK1775 was used as the standard control.
1. Coating substrate: 1) An appropriate volume of substrate storage solution protein tyrosinase (PTK) substrate (poly-Glu-Tyr) was taken, diluted 10 times with PBS, and the concentration was diluted from […]. The mixture was added to a high adsorption 96-well plate at 125 μL per well. The plate was placed in an incubator at 37° C. for overnight coating. 2) After 24 hours, the 96-well plate was taken out, the liquid in the 96-well plate was poured out, cleaned with washing buffer for 3 times, and the incubator at 37 was inverted and dried for 2 hours.
3. Enzyme reaction stage: 1) WEE1 kinase and ATP were prepared into 2× enzyme solution and 4× ATP solution respectively with 1× reaction buffer.
4. Reaction termination stage: 1) the reaction mixture in the plate was poured out, 200 μL of washing buffer was added to each well, and washed for 5 times; the primary antibody P-Tyr (PY99) (dilution ratio 1:2000) was added, 100 μL per well, at room temperature for 30 min. 2) The primary antibody in the plate was poured out, 200 μL of washing buffer was added to each well, and washed for 5 times; the second antibody Anti-mouse IgG HRP-linked Antibody (dilution ratio 1:2000) was added, 100 μL per well, at room temperature for 30 min. 3) The secondary antibody in the plate was poured out, washed 5 times with washing buffer, and TMB was added, 100 μL per well, and colored for 10-30 min, depending on the color depth. The reaction was terminated with 1N sulfuric acid before reading.
5. […] 2) Graphpad Prism 5.0 was used to fit Log(inhibitor) vs. response-Variable slope (four parameters) curves to the data, and the corresponding IC50 (half maximal inhibitory concentration) was calculated.

| Structure (SMILES) | IC50 (Hela cells) [nM] | IC50 (COLO 205 cells) [nM] | IC50 (WEE1 kinase; WEE1 IC50, nM) [nM] | IC50 (WEE1 kinase; read-out: WEE1 IC50) [nM] |
| --- | --- | --- | --- | --- |
| C=CCn1c(=O)c2cnc(Nc3ccc(N4CCN(C)CC4)cc3)nc2n1-c1ccc2c(n1)C(C)(O)CCC2 (stereo not drawn) [Compound I-19, 2-allyl-1-(8-hydroxy-8-methyl-5,6,7,8-tetrahydroquinolin-2-yl)-6-((4-(4-methylpiperazin-1-yl)phenyl)amino)-1,2-dihydro-3H-pyrazolo[3,4-d]pyrimidin-3-one] | 170 | 944 | 1.89 |  |
| C=CCn1c(=O)c2cnc(Nc3ccc(N4CC5(CCN(C)CC5)C4)cc3)nc2n1-c1ccc2c(n1)C(O)CC2 (stereo not drawn) [Compound I-10] | 206 | 920 |  | 8.59 |
| C=CCn1c(=O)c2cnc(Nc3ccc(N4CCN(C)CC4)cc3)nc2n1-c1ccc2c(n1)C(O)CC2 (stereo not drawn) [Compound I-1, 2-allyl-1-(7-hydroxy-6,7-dihydro-5H-cyclopenta[b]pyridin-2-yl)-6-((4-(4-methylpiperazin-1-yl)phenyl)amino)-1,2-dihydro-3H-pyrazolo[3,4-d]pyrimidin-3-one] | 495 | 1880 | 2.85 |  |
| C=CCn1c(=O)c2cnc(Nc3ccc(N4CCC5(CC4)CN(C)C5)cc3)nc2n1-c1ccc2c(n1)C(O)CCC2 (stereo not drawn) [Compound I-20, 2-allyl-1-(8-hydroxy-5,6,7,8-tetrahydroquinolin-2-yl)-6-((4-(2-methyl-2,7-diazaspiro[3.5]nonan-7-yl)phenyl)amino)-1,2-dihydro-3H-pyrazolo[3,4-d]pyrimidin-3-one] |  |  |  | 4.41 |
| C=CCn1c(=O)c2cnc(Nc3ccc(N4CCC(CN(C)C)CC4)cc3)nc2n1-c1ccc2c(n1)C(O)CC2 (stereo not drawn) [Compound I-5, 2-allyl-6-((4-(4-((dimethylamino)methyl)piperidin-1-yl)phenyl)amino)-1-(7-hydroxy-6,7-dihydro-5H-cyclopenta[b]pyridin-2-yl)-1,2-dihydro-3H-pyrazolo[3,4-d]pyrimidin-3-one] | 392 | 2550 |  | 3.62 |
| C=CCn1c(=O)c2cnc(Nc3ccc([C@H]4CC[C@@H](N(C)C)CC4)cc3)nc2n1-c1ccc2c(n1)C(C)(O)CCC2 (single isomer, unassigned) [Compound I-36-2] |  |  |  | 2.65 |
| C=CCn1c(=O)c2cnc(Nc3ccc(N4C[C@H]5CN(C)C[C@H]5C4)cc3)nc2n1-c1ccc2c(n1)C(O)CC2 (stereo partly drawn) [Compound I-31] |  |  |  | 3.12 |
| C=CCn1c(=O)c2cnc(Nc3ccc(C4CCN(C)CC4)cc3)nc2n1-c1ccc2c(n1)C(O)CC2 (stereo not drawn) [Compound I-3] | 434 | 5150 |  | 2.68 |
| C=CCn1c(=O)c2cnc(Nc3ccc(N4CCC5(CC4)CNC5)cc3)nc2n1-c1ccc2c(n1)C(O)CCC2 (stereo not drawn) [Compound I-21, 6-((4-(2,7-diazaspiro[3.5]nonan-7-yl)phenyl)amino)-2-allyl-1-(8-hydroxy-5,6,7,8-tetrahydroquinolin-2-yl)-1,2-dihydro-3H-pyrazolo[3,4-d]pyrimidin-3-one] |  |  |  | 5.75 |
| C=CCn1c(=O)c2cnc(Nc3ccc([C@H]4CC[C@@H](N(C)C)CC4)cc3)nc2n1-c1ccc2c(n1)C(O)CC2 (single isomer, unassigned) [Compound I-30-1] |  |  |  | 5.86 |
| C=CCn1c(=O)c2cnc(Nc3ccc(N4C[C@H]5CN(CC)C[C@H]5C4)cc3)nc2n1-c1ccc2c(n1)C(O)CC2 (stereo partly drawn) [Compound I-37] |  |  |  | 11.8 |
| C=CCn1c(=O)c2cnc(Nc3ccc(N4CCOCC4)cc3)nc2n1-c1ccc2c(n1)C(C)(O)CC2 (stereo not drawn) [Compound I-15] |  |  |  | 3.85 |
| C=CCn1c(=O)c2cnc(Nc3ccc(N4CCC5(CC4)CN(C)C5)cc3)nc2n1-c1ccc2c(n1)C(O)CC2 (stereo not drawn) [Compound I-8] |  |  |  | 11.3 |
| C=CCn1c(=O)c2cnc(Nc3ccc(N4CCC(N(C)C)CC4)cc3)nc2n1-c1ccc2c(n1)C(O)CCC2 (stereo not drawn) [Compound I-28, 2-allyl-6-((4-(4-(dimethylamino)piperidin-1-yl)phenyl)amino)-1-(8-hydroxy-5,6,7,8-tetrahydroquinolin-2-yl)-1,2-dihydro-3H-pyrazolo[3,4-d]pyrimidin-3-one formate] |  |  |  | 3.58 |
| C=CCn1c(=O)c2cnc(Nc3ccc(N4CC5CC4CN5)cc3)nc2n1-c1ccc2c(n1)C(O)CCC2 (stereo not drawn) [Compound I-25] |  |  |  | 4.05 |
| C=CCn1c(=O)c2cnc(Nc3ccc([C@H]4CC[C@@H](N(C)C)CC4)cc3)nc2n1-c1ccc2c(n1)C(C)(O)CCC2 (single isomer, unassigned) [Compound I-36-1] |  |  |  | 4.75 |
| C=CCn1c(=O)c2cnc(Nc3ccc([C@H]4CC[C@@H](N(C)C)CC4)cc3)nc2n1-c1ccc2c(n1)C(O)CC2 (single isomer, unassigned) [Compound I-30-2] |  |  |  | 6.6 |
| C=CCn1c(=O)c2cnc(Nc3ccc(N4CCNCC4)cc3)nc2n1-c1ccc2c(n1)C(C)(O)CCC2 (stereo not drawn) [Compound I-18, 2-allyl-1-(8-hydroxy-8-methyl-5,6,7,8-tetrahydroquinolin-2-yl)-6-((4-(piperazin-1-yl)phenyl)amino)-1,2-dihydro-3H-pyrazolo[3,4-d]pyrimidin-3-one] |  |  |  | 2.03 |
| C=CCn1c(=O)c2cnc(Nc3ccc(N4CCNCC4)cc3)nc2n1-c1ccc2c(n1)C(O)CCC2 (stereo not drawn) [Compound I-24] |  |  |  | 3.81 |
| C=CCn1c(=O)c2cnc(Nc3ccc(N4CCC5(CCNC5)CC4)cc3)nc2n1-c1ccc2c(n1)C(O)CCC2 (stereo not drawn) [Compound I-22] |  |  |  | 3.55 |
| C=CCn1c(=O)c2cnc(Nc3ccc(CN4CCN(C)CC4)cc3)nc2n1-c1ccc2c(n1)C(O)CC2 (stereo not drawn) [Compound I-7] | 2900 |  |  | 9.69 |
| C=CCn1c(=O)c2cnc(Nc3ccc(CCC(=O)N4CCCC4)cc3)nc2n1-c1ccc2c(n1)C(C)(O)CCC2 (stereo not drawn) [Compound I-17, 2-allyl-1-(8-hydroxy-8-methyl-5,6,7,8-tetrahydroquinolin-2-yl)-6-((4-(3-oxo-3-(pyrrolidin-1-yl)propyl)phenyl)amino)-1,2-dihydro-3H-pyrazolo[3,4-d]pyrimidin-3-one] |  |  |  | 12.8 |
| C=CCn1c(=O)c2cnc(Nc3ccc(N4CC5CC4CN5)cc3)nc2n1-c1ccc2c(n1)C(C)(O)CC2 (stereo not drawn) [Compound I-12, 6-((4-(2,5-diazabicyclo[2.2.1]heptan-2-yl)phenyl)amino)-2-allyl-1-(7-hydroxy-7-methyl-6,7-dihydro-5H-cyclopenta[b]pyridin-2-yl)-1,2-dihydro-3H-pyrazolo[3,4-d]pyrimidin-3-one] |  |  |  | 3.68 |
| C=CCn1c(=O)c2cnc(Nc3ccc(CCCN(C)C)cc3)nc2n1-c1ccc2c(n1)C(O)CC2 (stereo not drawn) [Compound I-43] |  |  |  | 4.91 |
| C=CCn1c(=O)c2cnc(Nc3ccc(N4CC5(CC(N(C)C)C5)C4)cc3)nc2n1-c1ccc2c(n1)C(O)CC2 (stereo not drawn) [Compound I-42] | 322 |  |  |  |
